The values below come from US20110306641A1, “NOVEL 2,6-SUBSTITUTED-3-NITROPYRIDINE DERIVATIVE, METHOD FOR PREPARING SAME, AND PHARMACEUTICAL PREPARATION INCLUDING SAME” (priority 2008, published 2011).

Series [1] has as its system Calvarial cell. Put plainly: Alkaline phosphatase (ALP) activity in osteoblasts (Calvarial cells). Particulars: 3 days; for activity at 1 µM: Mus musculus, 72 h, read-out: ALP activity (1 μM, % of Control) Calvarial cell. The format is cell-based, mouse. The protocol:
(§1) Differentiation and activity of osteoblasts were indirectly evaluated by measuring an ALP activity having a close relationship with osteogenesis.
(§2) Osteoblasts (Calvarial cells) prepared in Experimental Example 1 and MC3T3-E1 cells (available from RIKEN Cell Bank, Japan) were collected in α-MEM supplemented with 10% FBS, followed by cell counting. The cells were dispensed into 24-well cultureware at a density of 2×10^4 cells/well. After culturing of the cells for 24 hours, the culture media were discarded and replaced with fresh media in which test compounds were diluted to a concentration of 1 μM (1 mL/well). In addition, the vehicle control group containing 0.1% DMSO was also treated. Under the conditions where the compounds were treated, the cells were cultured in a 5% CO2 […] at 37° for 3 days. When the experiment was terminated, the supernatant was removed and the cells were washed three times with cold phosphate buffer at 4°. 0.2% Triton X-100 was added to the washed cells which were then subjected to three cycles of freezing at −70° and thawing at room temperature for the complete lysis of cells. The cell extracts were pooled and centrifuged to collect the cell supernatant which was used for the measurement of ALP activity and proteins. The protein concentration was measured using a BCA assay kit (manufactured by Sigma-Aldrich). For the measurement of ALP activity, p-nitrophenylphosphate was added to the cell supernatant which was then incubated at 37° for 30 minutes, and the reaction was terminated with the addition of 50 μL of 0.2N sodium hydroxide. The standard curve was plotted at the absorbance of 405 nm using p-nitrophenol as a standard material and then the absorbance of test materials thus reacted was measured to determine the production amount of p-nitrophenol.
(§3) The ALP activity was calculated by dividing the amount of p-nitrophenol produced from each test material by the protein amount and the reaction time. Therefore, the unit of ALP activity was given in terms of p-nitrophenol/μg protein/min. The results are given in Table 3 where the ALP activity unit of each test material was given in terms of % change through the comparison between the individual test materials and the vehicle control group.

The subject of the next series is MC3T3-E1 cell. Kind of series: Alkaline phosphatase (ALP) activity in MC3T3-E1 cells. The format is cell-based. Particulars: 3 days; for activity at 1 µM: Mus musculus, 72 h, read-out: ALP activity (1 μM, % of Control) MC3T3-E1 cell. On the procedure:
as §1, §2, §3

The test system of series [2] is osteoclastogenesis (formation of multinucleated osteoclasts). Put plainly: Osteoclastogenesis inhibition via co-culture system (bone marrow cells + osteoblasts, TRAP staining). Particulars: 7 days co-culture, vs vehicle control; for inhibition at 1 µM: Mus musculus, Osteoclast, 168 h; for Osteoclastogenesis inhibition (%): 1 μM. The series is classed as cell-based, mouse. On the procedure:
Osteoclastogenesis inhibitory effects of the compounds of the present invention were evaluated via a co-culture system (Reference: Endocrinology 137(1996), 2187 to 2190, E. Jimi et al.). A specific experimental method is as follows.
1) Preparation of Bone Marrow Cells and Osteoblasts
Femur and tibia were aseptically dissected from 6 to 8-week-old male ddY mice to harvest bone marrow cells by a conventional method using a syringe. In brief, tissues were removed from the dissected bone, the bone ends were cut off with scissors, and the bone marrow was isolated by pushing a medium-containing syringe (23G) against the one end of the cut bone. The isolated bone marrow was subjected to repeated piston movement of a syringe such that single cells were obtained (Reference: Endocrinology 123(1988), 2600 to 2602, Takahashi et al.). After removal of red blood cells within the bone marrow, the bone marrow cells recovered by centrifugation were placed in an α-MEM supplemented with 10% fetal bovine serum (FBS), followed by counting of nucleated cells and then were immediately used for a co-culture system.
For the preparation of osteoblasts (Calvarial cells), the cranial bone were aseptically dissected from 1 to 2-day-old neonatal ICR mice and subjected to continuous reaction with a 0.2% collagenase solution to separate osteoblasts. The cell-suspended supernatant was centrifuged to recover osteoblasts which were grown to full confluence in an α-MEM supplemented with 10% FBS and then diluted to a desired cell density for use in the experiment.
2) Osteoclastogenesis Inhibition Experiment Via Co-Culture System
As the medium used for a co-culture system, a differentiation medium with the addition of differentiation factors 1α,25-dihydroxyvitamin D3 (10^−8M) and dexamethasone (10^−8M) to α-MEM supplemented with 10% FBS was used for the induction of osteoclastogenesis. First, the compounds of the present invention dissolved in dimethyl sulfoxide (DMSO) at a concentration of 1 mM were diluted to 2 μM using the above-mentioned differentiation medium. As a vehicle control group, 0.2% (v/v) DMSO was added to the medium. 100 μL/well of each medium was added to 96-well plates. In addition, the above prepared bone marrow cells and osteoblasts were plated onto 96-well plates at a density of 1×10^5 cells/50 μL/well and 3×10^3 cells/50 μL/well, respectively. The total volume/well was 200 μL and the final compound concentration was 1 μM. The control group was 0.1% (v/v) DMSO. The cells were cultured with exchange of the culture media with fresh media containing differentiation factors and test materials (materials containing the compounds of the present invention) at an interval of 2 to 3 days.
7 days after culturing of cells, the formation of multinucleated osteoclasts was confirmed by microscopic examination, the medium was removed from the wells and then the cells were fixed in a 10% phosphate-buffered formalin solution. The degree of formation of mature osteoclasts was measured taking advantage of the characteristics of osteoclasts showing a positive reaction to a tartrate-resistant acid phosphatase (TRAP) staining solution. The TRAP staining solution was prepared in a manner such that naphthol AS-MS phosphate as a substrate and a coloring agent (Fast Red Violet LB salt) were dissolved in N,N-dimethylformamide, and a 0.1N NaHCO3 buffer solution containing 50 mM of tartaric acid was added thereto. Among the TRAP-positive cells under a light microscope, multinucleated osteoclasts having 6 to 7 nuclei were regarded as mature osteoclasts.
The degree of inhibition of osteoclastogenesis was calculated according to the following equation 1. The results are summarized in Table 2 below (Experiments were carried out for 4 wells/experimental group (n=4), and the results are given in terms of mean±standard deviation) […]

Series [3] deals with Calvarial cell. Kind of series: Cytotoxicity test (MTT) in osteoblasts (calvarial cells). The settings on record: 1 μM, 72 hours, vs vehicle control.
Experimental: Drugs were diluted to a concentration of 2 μM in α-MEM culture media supplemented with 10% FBS. The vehicle control group was established to contain 0.2% DMSO. 100 μL/well of the diluted drugs were dispensed into 96-well plates to which osteoblasts (calvarial cells) prepared in Experimental Example 1 were then added at a density of 1.0×10^4 cells/100 μL/well. Here, the final compound concentration in the cell culture was 1 μM, and the vehicle control group contained 0.1% DMSO. The cells were cultured in a 5% CO2 inhibitorr at 37° for 72 hours. 25 μL of 3-(4,5-dimethyl-2-thiazolyl)-2,5-diphenyl-2H-tetrazolium bromide (MTT) dissolved in PBS (2 mg/mL) was added to each cell culture 4 hours before the end of culture. After completion of the reaction, the plates were centrifuged, the media were discarded, and 100 μL of formazan was added and dissolved in dimethyl sulfoxide (DMSO). Finally, the absorbance of the developed plates was measured at 540 nm. The cell viability was expressed as % concentration in comparison with the vehicle control group.

As to “2-(1H-indazol-5-yl)amino-6-(2-methyl-4,5-dihydroimidazol-1-yl)amino-3-nitropyridine [Compound 1]”, in the series on Calvarial cell [1], the “ALP activity (1 μM, % of Control) Calvarial cell” value is listed as 158 % of Control. Besides, the “ALP activity (1 μM, % of Control) MC3T3-E1 cell” value in the series with MC3T3-E1 cell was 168 % of Control.

As to `CC(C)c1nccn1-c1ccc([N+](=O)[O-])c(Nc2ccc3[nH]ncc3c2)n1` [Compound 3, 2-(1H-indazol-5-yl)amino-6-(2-isopropylimidazol-1-yl)-3-nitropyridine], the inhibition at 1 µM in series [2] was 95%. The activity at 1 µM in the series with Calvarial cell [1] turned out to be 148%; in the series with MC3T3-E1 cell, 172%. Moreover, in the series with Calvarial cell [3], the “Cell viability (%) Calvarial cell” value is given as 118%.

Consider `CNc1ccc([N+](=O)[O-])c(Nc2ccc3[nH]ncc3c2)n1` [Compound 5, 2-(1H-indazol-5-yl)amino-6-(methylamino)-3-nitropyridine], for which the inhibition at 1 µM in series [2] is 89%. The activity at 1 µM in the series with Calvarial cell [1] turned out to be 193%; in the series on MC3T3-E1 cell it was 206%. Further, in the series on Calvarial cell [3], the “Cell viability (%) Calvarial cell” value worked out at 112%.

For `CC(C)Nc1ccc([N+](=O)[O-])c(Nc2ccc3[nH]ncc3c2)n1` [Compound 6, 2-(1H-indazol-5-yl)amino-6-(isopropylamino)-3-nitropyridine], the inhibition at 1 µM in series [2] was found to be 100%. Besides, the activity at 1 µM in the series with Calvarial cell [1] was 188%; with MC3T3-E1 cell, 207%. Besides, in the series with Calvarial cell [3], the “Cell viability (%) Calvarial cell” value came out at 97%.

Turning to `O=[N+]([O-])c1ccc(N2CCN(CCO)CC2)nc1Nc1ccc2cn[nH]c2c1` [Compound 19, 2-(1H-indazol-6-yl)amino-6-[4-(2-hydroxyethyl)piperazin-1-yl]-3-nitropyridine], the inhibition at 1 µM in series [2] is 90%. In addition, in the series on Calvarial cell [1], the activity at 1 µM was 132%. Further, the “Cell viability (%) Calvarial cell” value with Calvarial cell [3] was found to be 100%.

With `CN(C)CCNc1ccc([N+](=O)[O-])c(Nc2ccc3cn[nH]c3c2)n1` [Compound 20, 2-(1H-indazol-6-yl)amino-6-[2-(N,N-dimethylamino)ethylamino]-3-nitropyridine], in series [2], the inhibition at 1 µM is 90%. The activity at 1 µM in the series with Calvarial cell [1] stood at 119%.

On to `O=[N+]([O-])c1ccc(NCc2ccccn2)nc1Nc1ccc2cn[nH]c2c1` [Compound 21, 2-(1H-indazol-6-yl)amino-6-[(2-pyridyl)methylamino]-3-nitropyridine], for which the activity at 1 µM with Calvarial cell [1] was 115%. Also, the “Cell viability (%) Calvarial cell” value with Calvarial cell [3] is 96%.

As to `COCC(C)Nc1ccc([N+](=O)[O-])c(Nc2ccc3[nH]ncc3c2)n1` (stereo not drawn) [Compound 22, 2-(1H-indazol-5-yl)amino-6-[(1-methyl-2-methoxy)ethylamino]-3-nitropyridine], the “Osteoclastogenesis inhibition (%)” value in series [2] came to 100%. In the series with Calvarial cell [1], the “ALP activity (1 μM, % of Control) Calvarial cell” value was 119 % of Control. Further, the “Cell viability (%) Calvarial cell” value in the series with Calvarial cell [3] was determined as 99%.

As to `CN1CCN(Nc2ccc([N+](=O)[O-])c(Nc3ccc4cn[nH]c4c3)n2)CC1` [Compound 23, 2-(1H-indazol-6-yl)amino-6-[(4-methylpiperazin-1-yl)amino]-3-nitropyridine], in series [2], the inhibition at 1 µM came out at 92%. Moreover, in the series with Calvarial cell [1], the activity at 1 µM was 139%. Besides, the “Cell viability (%) Calvarial cell” value in the series on Calvarial cell [3] was 98%.

As for `O=[N+]([O-])c1ccc(NN2CCOCC2)nc1Nc1ccc2cn[nH]c2c1` [Compound 24, 2-(1H-indazol-6-yl)amino-6-[(4-morpholin-1-yl)amino]-3-nitropyridine], the “Osteoclastogenesis inhibition (%)” value in series [2] is on record as 86%. Also, the “ALP activity (1 μM, % of Control) Calvarial cell” value with Calvarial cell [1] was 107 % of Control. For the same compound, the “Cell viability (%) Calvarial cell” value in the series on Calvarial cell [3] worked out at 110%.

In the case of `CN(C)c1ccc([N+](=O)[O-])c(Nc2ccc3[nH]ncc3c2)n1` [Compound 25, 2-(1H-indazol-5-yl)amino-6-(N,N-dimethylamino)-3-nitropyridine], the inhibition at 1 µM in series [2] amounted to 81%. In addition, the activity at 1 µM with Calvarial cell [1] amounted to 128%. In addition, the “Cell viability (%) Calvarial cell” value in the series on Calvarial cell [3] turned out to be 106%.

On to `O=[N+]([O-])c1ccc(NCc2ccncc2)nc1Nc1ccc2cn[nH]c2c1` [Compound 26, 2-(1H-indazol-6-yl)amino-6-[(4-pyridyl)methylamino]-3-nitropyridine], for which the inhibition at 1 µM in series [2] is 78%. For the same compound, in the series on Calvarial cell [1], the activity at 1 µM came out at 113%. The “Cell viability (%) Calvarial cell” value with Calvarial cell [3] amounted to 106%.

Consider `CC(C)Nc1ccc([N+](=O)[O-])c(Nc2ccc3cn[nH]c3c2)n1` [Compound 33, 2-(1H-indazol-6-yl)amino-6-(isopropylamino)-3-nitropyridine], for which the activity at 1 µM with Calvarial cell [1] worked out at 122%. Also, the “Cell viability (%) Calvarial cell” value in the series on Calvarial cell [3] turned out to be 97%.

As for `O=[N+]([O-])c1ccc(NC2CC2)nc1Nc1ccc2[nH]ncc2c1` [Compound 34, 2-(1H-indazol-5-yl)amino-6-(cyclopropylamino)-3-nitropyridine], in series [2], the inhibition at 1 µM amounted to 100%. The activity at 1 µM with Calvarial cell [1] amounted to 154%. In the series on Calvarial cell [3], the “Cell viability (%) Calvarial cell” value was found to be 93%.

Regarding `O=[N+]([O-])c1ccc(NC(CO)CO)nc1Nc1ccc2[nH]ncc2c1` [Compound 35, 2-(1H-indazol-5-yl)amino-6-[(2-hydroxy-1-hydroxymethyl)-ethylamino]-3-nitropyridine], the “ALP activity (1 μM, % of Control) MC3T3-E1 cell” value with MC3T3-E1 cell is on record as 123 % of Control. For the same compound, in the series on Calvarial cell [3], the “Cell viability (%) Calvarial cell” value is given as 104%.

As for `O=[N+]([O-])c1ccc(NCCN2CCOCC2)nc1Nc1ccc2[nH]ncc2c1` [Compound 37, 2-(1H-indazol-5-yl)amino-6-[(2-morpholino)ethylamino]-3-nitropyridine], the figures for the activity at 1 µM with Calvarial cell [1] and in the series with MC3T3-E1 cell were 126% and 141%, respectively. The “Cell viability (%) Calvarial cell” value in the series with Calvarial cell [3] is reported as 94%.

In the case of `CN1CCN(c2ccc([N+](=O)[O-])c(Nc3ccc4[nH]ncc4c3)n2)CC1` [Compound 39, 2-(1H-indazol-5-yl)amino-6-(4-methylpiperazin-1-yl)-3-nitropyridine], in series [2], the inhibition at 1 µM amounted to 80%. In addition, the activity at 1 µM with Calvarial cell [1] was determined as 159%. The “Cell viability (%) Calvarial cell” value in the series on Calvarial cell [3] was found to be 97%.

Turning to `O=[N+]([O-])c1ccc(NCCCn2ccnc2)nc1Nc1ccc2cn[nH]c2c1` [Compound 49, 2-(1H-indazol-6-yl)amino-6-[(3-imidazol-1-yl)propylamino]-3-nitropyridine], the activity at 1 µM in the series on Calvarial cell [1] amounted to 129%. For the same compound, in the series with Calvarial cell [3], the “Cell viability (%) Calvarial cell” value is 95%.

In general, inhibition refers to the relative decrease from the control value, in per cent.
